# Reference: US20090053721A1, “VOLTAGE-GATED ION CHANNEL MUTANTS FOR USE IN IDENTIFYING ION CHANNEL MODULATING COMPOUNDS” (CARDIOME PHARMA CORP., priority 2007, published 2009)
# Where “and” joins values, the source holds several entries; their conditions need not be identical. Equal values may be shown once. Where a name gives a salt, the structure may show the parent alone.
# Key:
# Type in all cases: cell-based
# [1] = molecular target: T1, Kv1.5 I502A mutant channel (Homo sapiens, UniProt P22460, I502A); test: Voltage-dependence of block (Woodhull fit), I502A Kv1.5; conditions: for blocking site, electrical distance across the membrane: Woodhull fit; for calculated binding site within the electric field (fractional electrical distance δ): from the inside of the pore
# T1 construct: subcloned as a fragment back into full-length Kv1.5; expressed in transfected cells; host or cells: HEK293, transient transfection
# Protocol: (§1) Coverslips with adherent cells plated on the surface were placed in a superfusion chamber (volume 300 μl) containing the control bath solution at 22° C. Whole-cell current recording and analysis were carried out using an Axopatch 200B amplifier and pClamp10 software (Axon Instruments, CA, USA). Patch electrodes were pulled from thin-walled borosilicate glass (World Precision Instruments, FL, USA) on a horizontal micropipette puller (Sutter Instruments, CA, USA). […] Analogue capacity compensation and 80% series resistance compensation were used during whole cell measurements. Membrane potentials were not corrected for junction potentials that arise between the pipette and bath solution. For Kv1.5 current recordings, a holding potential of −80 mV was used. Data were sampled at 10-20 kHz and filtered at 5 to 10 kHz. To assess drug block, half-log escalating concentrations of drug were added to the flowing bath solution and current traces were recorded with 400 ms depolarizing pulses to +60 mV at a frequency of 0.1 Hz.
# (§2) f=[D]/([D]+Kd*e^−δzFE/RT)
# (§3) where F, R, z and T have their usual meanings, δ represents the fractional electrical distance, i.e., the fraction of the transmembrane electrical field sensed by a single charge at the receptor site. Kd* represents the binding affinity at the reference voltage (0 mV). The current amplitude (Idrug and Icontrol) was measured at the end of a 400 ms depolarization.
# (§4) The amount of block was measured at the end of the pulse at the time indicated by the arrow on each set of data records, and, after normalization to the control, current density was plotted as a function of the depolarization potential (FIGS. 7B, 8B). Data were then fit to a standard model of drug block to obtain the electrical distance of the blocking site into the electric field from the inside of the channel (Woodhull, 1973).
# [2] = molecular target: T2, Kv1.5 WT channel (Homo sapiens, UniProt P22460); test: Voltage-dependence of block (Woodhull fit), wild-type Kv1.5; conditions: for blocking site, electrical distance across the membrane: Woodhull fit, +10 to +60 mV; for calculated binding site within the electric field (fractional electrical distance δ): from the inside of the pore
# T2 construct: subcloned as a fragment back into full-length Kv1.5; expressed in transfected cells
# Protocol: as §1, §2, §3, §4
# [3] = molecular target: T3, Kv1.5 T479A mutant channel (Homo sapiens, UniProt P22460, T479A); test: Whole-cell patch-clamp block of mutant Kv1.5 current in HEK293 cells; conditions: for Fold change: IC50 of T479A relative to WT, potency increased
# T3 construct: subcloned as a fragment back into full-length Kv1.5; expressed in transfected cells; host or cells: HEK293, transient transfection
# Protocol: (§5) Stable lines of HEK293 cells expressing Kv1.5, or transient transfection of mutant Kv1.5 channels were used in all experiments. […] (Coralville, Iowa, USA), and mutants were generated using the Stratagene Quikchange kit (Stratagene, Calif., USA). […] This was added to the cells for overnight incubation after washing the media with 900 μl of MEM with 10% FBS. […] Media contained 10% bovine serum and 0.5 mg/ml geneticin for stable lines. On the day before recording, stably-expressing cells were washed with MEM, treated with trypsin/EGTA for one minute and plated on 25 mm^2 coverslips. All cell culture supplies were obtained from Invitrogen (Mississauga, ON, Canada). Control bath solution contained (in mM): 5 KCl, 135 NaCl, 2.8 sodium acetate, 1 MgCl2, 10 HEPES and 1 CaCl2, adjusted to pH 7.4 with NaOH. Patch pipettes contained (in mM): 130 KCl, 5 EGTA, 1 MgCl2, 10 HEPES, 4 Na2ATP, and 0.1 GTP, adjusted to pH 7.2 with KOH. All chemicals used to make solutions were obtained from Sigma-Aldrich (Mississauga, ON, Canada). […] (Vancouver, BC, Canada) and prepared as a stock solution (50 mM) in H2O. […] DMSO concentrations for either drug never exceeded 0.1% v/v in the final experimental solutions. Coverslips with adherent cells plated on the surface were placed in a superfusion chamber (volume 300 μl) containing the control bath solution at 22° C. Whole-cell current recording and analysis were carried out using an Axopatch 200B amplifier and pClamp10 software (Axon Instruments, CA, USA). Patch electrodes were pulled from thin-walled borosilicate glass (World Precision Instruments, FL, USA) on a horizontal micropipette puller (Sutter Instruments, CA, USA). […] Analogue capacity compensation and 80% series resistance compensation were used during whole cell measurements. Membrane potentials were not corrected for junction potentials that arise between the pipette and bath solution. […] Data were sampled at 10-20 kHz and filtered at 5 to 10 kHz. […] Data are represented as mean±SE unless otherwise specified. For significance of differences, * represents p<0.05, ** p<0.01; statistical analysis was conducted using Student's t-test (unpaired). Clampfit software (Axon Instruments, CA, USA) was used to analyze current traces. Data from each test pulse (currents in the presence of drug) were normalized to control test pulse currents obtained before drug exposure. […] IC50 is the concentration producing half-maximal inhibition; and n is the Hill coefficient.
# [4] = molecular target: T4, Kv1.5 I502F mutant channel (Homo sapiens, UniProt P22460, I502F); test: as above
# T4 construct: subcloned as a fragment back into full-length Kv1.5; expressed in transfected cells; host or cells: HEK293, transient transfection
# Protocol: as §5
# [5] = molecular target: T1, Kv1.5 I502A mutant channel; test: as above; conditions: for Fold change: IC50 of I502A relative to WT, decrease in potency
# Protocol: as §5
# [6] = molecular target: T5, Kv1.5 I508A mutant channel (Homo sapiens, UniProt P22460, I508A); test: as above; conditions: for Fold change: IC50 of I508A relative to WT, vernakalant potency reduced, flecainide potency increased
# T5 construct: subcloned as a fragment back into full-length Kv1.5; expressed in transfected cells; host or cells: HEK293, transient transfection
# Protocol: as §5
# [7] = molecular target: T6, Kv1.5 V505A mutant channel (Homo sapiens, UniProt P22460, V505A); test: as above; conditions: for Fold change: IC50 of V505A relative to WT, vernakalant potency reduced, flecainide potency increased
# T6 construct: subcloned as a fragment back into full-length Kv1.5; expressed in transfected cells; host or cells: HEK293, transient transfection
# Protocol: as §5
# [8] = molecular target: T7, Kv1.5 I508F mutant channel (Homo sapiens, UniProt P22460, I508F); test: as above
# T7 construct: subcloned as a fragment back into full-length Kv1.5; expressed in transfected cells; host or cells: HEK293, transient transfection
# Protocol: as §5
# [9] = molecular target: T8, Kv1.5 I502L mutant channel (Homo sapiens, UniProt P22460, I502L); test: as above
# T8 construct: subcloned as a fragment back into full-length Kv1.5; expressed in transfected cells; host or cells: HEK293, transient transfection
# Protocol: as §5
# [10] = molecular target: T9, Kv1.5 V505F mutant channel (Homo sapiens, UniProt P22460, V505F); test: as above
# T9 construct: subcloned as a fragment back into full-length Kv1.5; expressed in transfected cells; host or cells: HEK293, transient transfection
# Protocol: as §5
# T3 sequence (P22460 whole entry T479A, the tested form may be a part): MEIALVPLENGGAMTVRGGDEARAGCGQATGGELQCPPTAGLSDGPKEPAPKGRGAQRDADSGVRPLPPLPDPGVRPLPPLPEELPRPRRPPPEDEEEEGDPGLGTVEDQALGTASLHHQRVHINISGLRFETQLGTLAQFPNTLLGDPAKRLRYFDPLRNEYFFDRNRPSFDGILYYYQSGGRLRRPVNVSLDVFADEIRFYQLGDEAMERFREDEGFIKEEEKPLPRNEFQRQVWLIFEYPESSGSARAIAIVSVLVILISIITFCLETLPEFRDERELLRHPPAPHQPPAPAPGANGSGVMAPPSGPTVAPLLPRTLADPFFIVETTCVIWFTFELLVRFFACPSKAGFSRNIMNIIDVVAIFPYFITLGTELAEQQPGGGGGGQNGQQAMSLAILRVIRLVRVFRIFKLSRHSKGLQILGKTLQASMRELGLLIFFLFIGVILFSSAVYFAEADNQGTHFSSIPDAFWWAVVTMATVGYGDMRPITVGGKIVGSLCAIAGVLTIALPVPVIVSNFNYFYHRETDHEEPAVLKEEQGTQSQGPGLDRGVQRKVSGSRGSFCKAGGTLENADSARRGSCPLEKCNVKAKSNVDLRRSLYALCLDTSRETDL
# T4 sequence (P22460 whole entry I502F, the tested form may be a part): as the sequence (P22460 whole entry T479A, the tested form may be a part) above, with A479T, I502F counted along it
# T1 sequence (P22460 whole entry I502A, the tested form may be a part): as the sequence (P22460 whole entry T479A, the tested form may be a part) above, with A479T, I502A counted along it
# T7 sequence (P22460 whole entry I508F, the tested form may be a part): as the sequence (P22460 whole entry T479A, the tested form may be a part) above, with A479T, I508F counted along it
# T6 sequence (P22460 whole entry V505A, the tested form may be a part): as the sequence (P22460 whole entry T479A, the tested form may be a part) above, with A479T, V505A counted along it
# T8 sequence (P22460 whole entry I502L, the tested form may be a part): as the sequence (P22460 whole entry T479A, the tested form may be a part) above, with A479T, I502L counted along it
# T9 sequence (P22460 whole entry V505F, the tested form may be a part): as the sequence (P22460 whole entry T479A, the tested form may be a part) above, with A479T, V505F counted along it
# T5 sequence (P22460 whole entry I508A, the tested form may be a part): as the sequence (P22460 whole entry T479A, the tested form may be a part) above, with A479T, I508A counted along it
# T2 sequence (P22460 whole entry, the tested form may be a part): as the sequence (P22460 whole entry T479A, the tested form may be a part) above, with A479T counted along it
structure (smiles),measurement,setting,value
"COc1ccc(CCO[C@@H]2CCCC[C@H]2N2CC[C@@H](O)C2)cc1OC [Vernakalant, 3-Pyrrolidinol, 1-[(1R,2R)-2-[2-(3,4-dimethoxyphenyl)ethoxy]cyclohexyl]-,hydrochloride, (3R)]","blocking site, electrical distance across the membrane",[1],~40%
same,calculated binding site within the electric field (fractional electrical distance δ),[1],0.39
same,"blocking site, electrical distance across the membrane",[2],~17%
same,calculated binding site within the electric field (fractional electrical distance δ),[2],0.17
same,Hill coefficient,[3]; Kv1.5 T479A,0.6
same,Fractional Block ± SEM,"[3]; Kv1.5 T479A, 10 μM vernakalant",0.77 ± 0.05
same,Hill coefficient,[4]; Kv1.5 I502F,0.84
same,Fractional Block ± SEM,"[4]; Kv1.5 I502F, 10 μM vernakalant",0.10 ± 0.01
same,Hill coefficient,[5]; Kv1.5 I502A,0.65
same,Fractional Block ± SEM,"[5]; Kv1.5 I502A, 10 μM vernakalant",0.07 ± 0.03
same,Hill coefficient,[6]; Kv1.5 I508A,0.87
same,Fractional Block ± SEM,"[6]; Kv1.5 I508A, 10 μM vernakalant",0.21 ± 0.03
same,Hill coefficient,[7]; Kv1.5 V505A,0.95
same,Fractional Block ± SEM,"[7]; Kv1.5 V505A, 10 μM vernakalant",0.21 ± 0.04
same,Hill coefficient,[8]; Kv1.5 I508F,1.23
same,Fractional Block ± SEM,"[8]; Kv1.5 I508F, 10 μM vernakalant",0.94 ± 0.02
same,Hill coefficient,[9]; Kv1.5 I502L,0.96
same,Fractional Block ± SEM,"[9]; Kv1.5 I502L, 10 μM vernakalant",0.33 ± 0.07
same,Hill coefficient,[10]; Kv1.5 V505F,0.96
same,Fractional Block ± SEM,"[10]; Kv1.5 V505F, 10 μM vernakalant",0.27 ± 0.05
O=C(NCC1CCCCN1)c1cc(OCC(F)(F)F)ccc1OCC(F)(F)F (centres unmarked) [Flecainide],"blocking site, electrical distance across the membrane",[1],32%
same,calculated binding site within the electric field (fractional electrical distance δ),[1],0.32
same,"blocking site, electrical distance across the membrane",[2],~17%
same,calculated binding site within the electric field (fractional electrical distance δ),[2],0.17
same,Fold change,[3],200
same,Fold change,[3]; listed as flecamide,238
same,IC50,[3]; Kv1.5 T479A,0.19 ± 0.04 µM
same,Fold change,[4]; IC50 of I502F relative to WT,4.13
same,IC50,[4]; Kv1.5 I502F,164 ± 31.4 µM
same,Fold change,[5],2.43
same,Fold change,[5]; listed as flecamide,2.4
same,IC50,[5]; Kv1.5 I502A,92 µM
same,Fold change,[6],5.15
same,Fold change,[6]; listed as flecamide,5.2
same,IC50,[6]; Kv1.5 I508A,7.39 ± 0.92 µM
same,Fold change,[7],2.92
same,Fold change,[7]; listed as flecamide,3
same,IC50,[7]; Kv1.5 V505A,13.1 ± 3.58 µM
same,Fold change,"[8]; IC50 of I508F relative to WT, direction differs by drug",1.96
same,IC50,[8]; Kv1.5 I508F,74.7 ± 5.37 µM
same,Fold change,"[9]; IC50 of I502L relative to WT, direction differs by drug",3.55
same,IC50,[9]; Kv1.5 I502L,10.8 ± 1.09 µM
same,Fold change,"[10]; IC50 of V505F relative to WT, direction differs by drug",8.93
same,IC50,[10]; Kv1.5 V505F,4.3 µM and 4.27 µM
